Data on three molecules can be found in US10774046B2, “Inhibitors for the treatment of cancer and related methods” (UNIVERSITY OF LOUISVILLE RESEARCH FOUNDATION, INC., priority 2017, dated 2020).

SMILES strings stand for the structures.

The target in one series is human recombinant PFKFB4 (Homo sapiens, UniProt Q16877). Put plainly: ADP-Glo kinase assay. Format: biochemical. Here is the method:
The fructose-6-phosphate kinase activity of human recombinant PFKFB4 in the presence of DMSO±indicated 5MPN concentrations was assayed as previously described. The activity of 5MPN against 97 kinases was examined using a commercially available active-site dependent competition binding assay core service (KINOMEscanEDGE) that quantifies the capacity of test agents to compete with an immobilized, active-site directed ligand using a DNA-tagged kinase and immobilized ligand and compound. For example, enzyme inhibition was studied using an ADP-Glo assay. The effect of MPN-2 on the activity of recombinant human PFKFB4 enzyme was examined in an ADP-Glo assay (Promega), which measures ADP formed from a kinase reaction. ADP is converted into ATP, which is converted into light by a luciferase. PFKFB4 protein was exposed to MPN-2 at indicated concentrations in the presence of ATP and fructose-6-phosphate and following manufacturer's instructions, ADP-Glo and kinase detections reagents were added. The data are shown as the decrease in luminescence caused by MPN-2 relative to DMSO.
Method: The efficacy of Formula (VIII) in inhibition of the kinase activity of the PFKFB4 enzyme was examined by exposing recombinant human PFKFB4 protein to Formula (VIII) in the ADP-Glo kinase assay (Promega) which measures ADP formed through a kinase reaction. Briefly, recombinant protein, ATP, substrate and Formula (VIII) were incubated together for the kinase reaction followed by the addition of ADP-Glo reagent, used to terminate the kinase reaction. Lastly, a kinase detection reagent was added to convert the newly formed ADP to ATP which was measured by a luciferase reaction. Data are shown in FIG. 10 as the decrease in luminescence caused by Formula (VIII) relative to DMSO.
Method: The efficacy of FB4-32 and FB4-35 in inhibition of the kinase activity of the PFKFB4 enzyme was examined by exposing recombinant human PFKFB4 protein to FB4-32 and FB4-35 in the ADP-Glo kinase assay (Promega) which measures ADP formed through a kinase reaction. Briefly, recombinant protein, ATP, substrate and FB4-32 or FB4-35 were incubated together for the kinase reaction followed by the addition of ADP-Glo reagent to terminate the kinase reaction. Last, a kinase detection reagent was added to convert the newly formed ADP to ATP which was measured by a luciferase reaction. Data are shown as the decrease in luminescence caused by FB4-32 and FB4-35 relative to DMSO.
For orientation: In ADP-Glo the light output rises with the ADP produced.

The subject of series [1] is H460 cells. Put plainly: F2,6BP measurement in cells (coupled enzyme reaction). Format: cell-based, human. To be noted: H460, effects at 2.5 μM. Here is the method: Cells or tissues were prepared as previously described and F2,6BP content measured using a coupled enzyme reaction following a modification of the method of Van Schaftingen et al (VAN SCHAFTINGEN E et al. “A kinetic study of pyrophosphate:fructose-6-phosphate phosphotransferase from potato tubers. Application to a microassay of fructose 2,6-bisphosphate” Eur J Biochem (1982) Vol. 129, No. 1, pp. 191-195) and normalized to total cellular protein measured by the bicinchoninic acid assay (BCA, Thermo Scientific). For example, H460 cells were exposed to the indicated concentrations of MPN-2. In order to measure F2,6BP, cells were harvested, washed with PBS, lysed in NaOH/Tris acetate by heating at 80° C. and lysates neutralized to pH 7.2. F2,6BP content was measured using a coupled enzyme reaction following a modified method of Van Schaftingen et al (VAN SCHAFTINGEN E et al. “A kinetic study of pyrophosphate:fructose-6-phosphate phosphotransferase from potato tubers. Application to a microassay of fructose 2,6-bisphosphate” Eur J Biochem (1982) Vol. 129, No. 1, pp. 191-195). The F2,6BP concentration was normalized to total cellular protein measured by the bicinchoninic acid assay (BCA, Thermo Scientific). All data are expressed as the mean±SD of three experiments. Statistical significance was assessed by the two-sample t test (independent variable).
Method: In order to measure F26BP, H460 cells were exposed to increasing concentrations of the agents and were harvested, washed with PBS, lysed in NaOH/Tris acetate by heating at 80° C. and lysates neutralized to pH 7.2. F26BP content was measured using a coupled enzyme reaction following a modified method of Van Schaftingen et al. (Eur J Biochem. 1982; 129(1):191-195). The F26BP concentration was normalized to total cellular protein measured by the bicinchoninic acid assay (BCA, Thermo Scientific).

Series [2] has as its system H460 cells. Put plainly: proliferation, viable cell count by trypan blue exclusion. As to conditions: for proliferation (cell counts relative to DMSO): H460, counts at 72 hours shown. It counts as cell-based, human. Here is the method:
Cells were incubated in 20% trypan blue (Sigma) for 5 minutes. Cells excluding trypan blue were counted using a standard hemocytometer (Hausser Scientific) to determine total numbers of viable cells. Data are expressed as mean±SD of three experiments.
H460 non-small cell lung cancer cells were plated in 24 well plates and exposed to increasing concentrations of the indicated inhibitors of Formula IV (FBR1-02 corresponds to
DMSO was used as vehicle. After 24, 48 and 72 hours of exposure, cells were detached and viable cells were counted by Trypan blue exclusion (representative counts at 48 hours shown).
Method: H460 cells were plated in 24 well plates and exposed to increasing concentrations of FB4-31 to FB4-36 and 5MPN. DMSO was used as a vehicle. After 24, 48 and 72 hours of exposure, cells were detached, and viable cells were counted by Trypan blue exclusion (representative counts at 72 hours shown).

The nature of series [3]: pharmacokinetic profile after IV and oral administration. It counts as in vivo. To be noted: mice. How it is done: Method: The pharmacokinetic profile of FB4-32 was determined in mice dosed orally and IV with FB4-32. Nine time points (n=3 per time point) were used to determine indicated PK parameters calculated using WinNonLin v5.0. Plasma samples were extracted using acetonitrile and analyzed by LC/MS-MS using a PhenomexSynergi Polar-RP 4 micron 50×2.0 mm column eluted with a biphasic mobile phase (0.5% formic acid in acetonitrile and water).

Series [4] concerns H460 cells. Nature of the series: glycolysis assay (3H2O from 5-[3H]glucose). Format: cell-based, human. To be noted: H460. Here is the method: H460 cells were exposed to the indicated concentrations of MPN-2 and glycolysis production was examined. Cells growing in 6-well plates were incubated in 500 μl of complete medium containing 1 μCi of 5-[^3H]glucose per well for 60 min in 5% CO2 at 37° C. Media was collected, ^3H2O formed via glycolysis from the 5-[^3H]glucose measured and counts normalized as previously described. For example, the medium was then collected and centrifuged to pellet any suspended cells. To separate the ^3H2O formed via glycolysis from the 5-[^3H]glucose added to the medium, an evaporation technique in a sealed system was utilized. Briefly, 150 μl aliquots of medium were added to open tubes that were placed upright inside scintillation vials containing 1 ml of H2O. The scintillation vials were sealed, and the ^3H2O produced by glycolysis through enolase and released to the medium was allowed to equilibrate with the H2O in the outer vial for 48 h at 37° C. The amounts of ^3H2O that had diffused into the surrounding H2O was measured on a Tri-Carb 2910 liquid scintillation analyzer (Perkin Elmer) and compared with ^3H2O and 5-[^3H]glucose standards. Protein concentration was determined using the BCA assay and counts were normalized to protein concentration. All data are expressed as the mean±SD of three experiments. Statistical significance was assessed by the two-sample t test (independent variable).
Method: To examine glycolysis, H460 cells growing in 6-well plates were incubated in 500 μl of complete medium containing 1 μCi of 5-[^3H] glucose per well for 60 min in 5% CO2 at 37° C. The medium was then collected and centrifuged to pellet any suspended cells. To separate the ^3H2O formed via glycolysis from the 5-[^3H]glucose added to the medium, an evaporation technique in a sealed system was utilized. Briefly, 150 μl aliquots of medium were added to open tubes that were placed upright inside scintillation vials containing 1 ml of H2O. The scintillation vials were sealed, and the ^3H2O produced by glycolysis through enolase and released to the medium was allowed to equilibrate with the H2O in the outer vial for 48 h at 37° C. The amounts of ^3H2O that had diffused into the surrounding H2O was measured on a Tri-Carb 2910 liquid scintillation analyzer (Perkin Elmer) and compared with ^3H2O and 5-[^3H]glucose standards. Protein concentration was determined using the BCA assay and counts were normalized to protein concentration (previously described in CHESNEY et al. Oncotarget. 2014; 5(16):6670-6686.)

Sequence of human recombinant PFKFB4 (Q16877 whole entry): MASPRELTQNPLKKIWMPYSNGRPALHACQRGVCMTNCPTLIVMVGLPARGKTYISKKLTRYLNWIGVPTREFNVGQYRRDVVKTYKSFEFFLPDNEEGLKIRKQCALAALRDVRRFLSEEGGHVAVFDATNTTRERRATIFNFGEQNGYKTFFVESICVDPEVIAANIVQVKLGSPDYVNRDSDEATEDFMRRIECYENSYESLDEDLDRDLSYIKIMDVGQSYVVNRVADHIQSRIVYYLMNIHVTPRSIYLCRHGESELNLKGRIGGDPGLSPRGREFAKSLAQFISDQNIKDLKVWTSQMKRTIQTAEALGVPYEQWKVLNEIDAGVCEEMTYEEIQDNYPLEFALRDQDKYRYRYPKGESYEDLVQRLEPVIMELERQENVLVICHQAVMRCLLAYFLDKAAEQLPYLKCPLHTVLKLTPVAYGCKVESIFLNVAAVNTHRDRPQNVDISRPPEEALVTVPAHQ

Take `COc1cccc2c(NCCCCCCNC(=O)C(F)(F)F)ccnc12` [FB4-32, 2,2,2-Trifluoro-N-(6-((8-methoxyquinolin-4-yl)amino)hexyl)acetamide]: the “kinase activity of the PFKFB4 enzyme (luminescence relative to DMSO)” value on human recombinant PFKFB4 was “inhibited”. In addition, in the series with H460 cells [1], the “F26BP (normalized to cellular protein)” value was “decrease”. Moreover, in the series with H460 cells [2], the “proliferation (cell counts relative to DMSO)” value is on record as “decreased the proliferation of H460 cells in vitro with higher potency than 5MPN”. Besides, the oral bioavailability result in series [3] is “found to have oral bioavailability”. For the same molecule, in the series with H460 cells [4], the “glycolysis (production of 3H2O relative to DMSO)” value was “dose-dependent decrease”.

`COc1cccc2c(NCCCCCNC(=O)CBr)ccnc12` [FB4-35, 2-Bromo-N-(5-((8-methoxyquinolin-4-yl)amino)pentyl)acetamide]: the “kinase activity of the PFKFB4 enzyme (luminescence relative to DMSO)” value at human recombinant PFKFB4 is given as “inhibited”. Further, the “F26BP (normalized to cellular protein)” value with H460 cells [1] is “decrease”. The “proliferation (cell counts relative to DMSO)” value in the series on H460 cells [2] is reported as “decreased the proliferation of H460 cells in vitro with higher potency than 5MPN”. Also, the “glycolysis (production of 3H2O relative to DMSO)” value with H460 cells [4] is reported as “dose-dependent decrease”.

As to `O=[N+]([O-])OCCCCCNc1ccnc2ccccc12` [FBR1-02], the proliferation result in the series on H460 cells [2] (H460, Formula IV compounds, counts at 48 hours shown) was “decreased proliferation”.
